In US10835531B1, “Methods for predicting drug responsiveness in cancer patients” (Oncology Venture ApS, priority 2019, dated 2020):

How the values were obtained:
[1] = tested on: HL-60(TB); assay: NCI60 panel growth inhibition; format: cell-based; details: Homo sapiens; HL-60(TB) cell line
Experimental: The human tumor cell lines of the cancer screening panel may be grown in RPMI 1640 medium containing 5% fetal bovine serum and 2 mM L-glutamine. Cells may be inoculated into 96 well microtiter plates in 100 μL at plating densities ranging from 5,000 to 40,000 cells/well depending on the doubling time of individual cell lines. After cell inoculation, the microtiter plates may be incubated at 37° C., 5% CO2, 95% air and 100% relative humidity for 24 hours prior to addition of experimental compounds. After 24 hours, two plates of each cell line may be fixed in situ with TCA, to represent a measurement of the cell population for each cell line at the time of compound addition (Tz). Experimental compounds may be solubilized in dimethyl sulfoxide at 400-fold the desired final maximum test concentration and stored frozen prior to use. […] Bound stain may be subsequently solubilized with 10 mM trizma base, and the absorbance may be read on an automated plate reader at a wavelength of 515 nm. […] Using the seven absorbance measurements [time zero, (Tz), control growth, (C), and test growth in the presence of compound (e.g., dovitinib or a pharmaceutically acceptable salt thereof) at the five concentration levels (Ti)], the percentage growth may be calculated at each of the compound concentrations levels. […] The compound concentration resulting in total growth inhibition (TGI) is calculated from Ti=Tz. […]

[2] = tested on: patients with RCC, GIST, endometrial cancer, HCC or breast cancer; assay: Clinical response rate as a function of DRP cutoff, all five cohorts of Examples 2-6; format: in vivo, human
Description: Gene expression data (Affymetrix) and clinical response data was obtained from 73 patients in the dovitinib arm. The DRP was applied to calculate a score for each patient (mean of genes in Table 2 minus mean of genes in Table 3). The score for each patient was compared to a reference population with the same diagnosis. For the reference population the dovitinib and sorafenib arms were combined (N=148). This allowed the calculation of a percentile score for each patient. Patients were grouped according to RECIST v1.1 response (centrally assessed) and included in FIG. 1.
Gene expression data (Affymetrix) and clinical response data was obtained from 14 patients. The DRP was applied to calculate a score for each patient (mean of genes in Table 2 minus mean of genes in Table 3). The score for each patient was compared to a reference population with the same diagnosis. For the reference population public data sets were downloaded from the GEO database (GSE20708, GSE17743, GSE8167, N=83). This allowed the calculation of a percentile score for each patient. Patients were grouped according to RECIST v1.1 response (locally assessed, no central assessment) and included in FIG. 1.
Gene expression data (Affymetrix) and clinical response data was obtained from 29 patients. The DRP was applied to calculate a score for each patient (mean of genes in Table 2 minus mean of genes in Table 3). The score for each patient was compared to a reference population with the same diagnosis. For the reference population a public data set was downloaded from the GEO database (GSE17025, N=91). This allowed the calculation of a percentile score for each patient. Patients were grouped according to RECIST v1.1 response (central assessment) and included in FIG. 1.
Gene expression data (Affymetrix) and clinical response data was obtained from 6 patients in the dovitinib arm. The DRP was applied to calculate a score for each patient (mean of genes in Table 2 minus mean of genes in Table 3). The score for each patient was compared to a reference population with the same diagnosis. […]

[3] = tested on: SF-268; assay: NCI60 panel growth inhibition; format: cell-based; details: Homo sapiens; SF-268 cell line
Experimental: (§1) The human tumor cell lines of the cancer screening panel may be grown in RPMI 1640 medium containing 5% fetal bovine serum and 2 mM L-glutamine. Cells may be inoculated into 96 well microtiter plates in 100 μL at plating densities ranging from 5,000 to 40,000 cells/well depending on the doubling time of individual cell lines. After cell inoculation, the microtiter plates may be incubated at 37° C., 5% CO2, 95% air and 100% relative humidity for 24 hours prior to addition of experimental compounds. After 24 hours, two plates of each cell line may be fixed in situ with TCA, to represent a measurement of the cell population for each cell line at the time of compound addition (Tz). Experimental compounds may be solubilized in dimethyl sulfoxide at 400-fold the desired final maximum test concentration and stored frozen prior to use. At the time of compound (e.g., dovitinib or a pharmaceutically acceptable salt thereof) addition, an aliquot of frozen concentrate may be thawed and diluted to twice the desired final maximum test concentration with complete medium containing 50 μg/ml Gentamicin. Additional four, 10-fold or ½ log serial dilutions are made to provide a total of five concentrations plus control. […] Following compound (e.g., dovitinib or a pharmaceutically acceptable salt thereof) addition, the plates may be incubated for an additional 48 h at 37° C., 5% CO2, 95% air, and 100% relative humidity. For adherent cells, the assay may be terminated by the addition of cold TCA. Cells may be fixed in situ by the gentle addition of 50 μl of cold 50% (w/v) TCA (final concentration, 10% TCA) and incubated for 60 minutes at 4° C. The supernatant may be discarded, and the plates may be washed five times with tap water and air-dried. Sulforhodamine B (SRB) solution (100 μl) at 0.4% (w/v) in 1% acetic acid may be added to each well, and plates are incubated for 10 minutes at room temperature. After staining, unbound dye may be removed by washing five times with 1% acetic acid and the plates may be air-dried. […] Values are calculated for each of these three parameters if the level of activity is reached; however, if the effect is not reached or is exceeded, the value for that parameter is expressed as greater or less than the maximum or minimum concentration tested.

[4] = tested on: A498; assay: NCI60 panel growth inhibition; format: cell-based; details: Homo sapiens; A498 cell line
Experimental: as §1

[5] = tested on: EKVX; assay: NCI60 panel growth inhibition; format: cell-based; details: Homo sapiens; EKVX cell line
Experimental: as §1

[6] = tested on: NCl/ADR-RES; assay: NCI60 panel growth inhibition; format: cell-based; details: Homo sapiens; NCl/ADR-RES cell line
Experimental: as §1

[7] = tested on: SR; assay: NCI60 panel growth inhibition; format: cell-based; details: Homo sapiens; SR cell line
Experimental: as §1

[8] = tested on: SF-539; assay: NCI60 panel growth inhibition; format: cell-based; details: Homo sapiens; SF-539 cell line
Experimental: as §1

[9] = tested on: HT29; assay: NCI60 panel growth inhibition; format: cell-based; details: Homo sapiens, HT-29; HT29 cell line
Experimental: as §1

[10] = tested on: T-47D; assay: NCI60 panel growth inhibition; format: cell-based; details: Homo sapiens, T47D; T-47D cell line
Experimental: as §1

[11] = tested on: OVCAR-8; assay: NCI60 panel growth inhibition; format: cell-based; details: Homo sapiens; OVCAR-8 cell line
Experimental: as §1

[12] = tested on: SNB-19; assay: NCI60 panel growth inhibition; format: cell-based; details: Homo sapiens; SNB-19 cell line
Experimental: as §1

[13] = tested on: MALME-3M; assay: NCI60 panel growth inhibition; format: cell-based; details: Homo sapiens; MALME-3M cell line
Experimental: as §1

[14] = tested on: HCT-116; assay: NCI60 panel growth inhibition; format: cell-based; details: Homo sapiens; HCT-116 cell line
Experimental: as §1

[15] = tested on: UACC-62; assay: NCI60 panel growth inhibition; format: cell-based; details: Homo sapiens; UACC-62 cell line
Experimental: as §1

[16] = tested on: OVCAR-3; assay: NCI60 panel growth inhibition; format: cell-based; details: Homo sapiens; OVCAR-3 cell line
Experimental: as §1

[17] = tested on: HCT-15; assay: NCI60 panel growth inhibition; format: cell-based; details: Homo sapiens; HCT-15 cell line
Experimental: as §1

[18] = tested on: HOP-92; assay: NCI60 panel growth inhibition; format: cell-based; details: Homo sapiens; HOP-92 cell line
Experimental: as §1

[19] = tested on: SF-295; assay: NCI60 panel growth inhibition; format: cell-based; details: Homo sapiens; SF-295 cell line
Experimental: as §1

[20] = tested on: MDA-MB-435; assay: NCI60 panel growth inhibition; format: cell-based; details: Homo sapiens; MDA-MB-435 cell line
Experimental: as §1

[21] = tested on: IGROV1; assay: NCI60 panel growth inhibition; format: cell-based; details: Homo sapiens, IGROV-1; IGROV1 cell line
Experimental: as §1

[22] = tested on: SW-620; assay: NCI60 panel growth inhibition; format: cell-based; details: Homo sapiens; SW-620 cell line
Experimental: as §1

[23] = tested on: KM12; assay: NCI60 panel growth inhibition; format: cell-based; details: Homo sapiens; KM12 cell line
Experimental: as §1

[24] = tested on: HOP-62; assay: NCI60 panel growth inhibition; format: cell-based; details: Homo sapiens; HOP-62 cell line
Experimental: as §1

[25] = tested on: UO-31; assay: NCI60 panel growth inhibition; format: cell-based; details: Homo sapiens; UO-31 cell line
Experimental: as §1

[26] = tested on: NCl-H226; assay: NCI60 panel growth inhibition; format: cell-based; details: Homo sapiens; NCl-H226 cell line
Experimental: as §1

[27] = tested on: DU-145; assay: NCI60 panel growth inhibition; format: cell-based; details: Homo sapiens; DU-145 cell line
Experimental: as §1

[28] = tested on: A549/ATCC; assay: NCI60 panel growth inhibition; format: cell-based; details: Homo sapiens; A549/ATCC cell line
Experimental: as §1

[29] = tested on: ACHN; assay: NCI60 panel growth inhibition; format: cell-based; details: Homo sapiens; ACHN cell line
Experimental: as §1

[30] = tested on: OVCAR-4; assay: NCI60 panel growth inhibition; format: cell-based; details: Homo sapiens; OVCAR-4 cell line
Experimental: as §1

[31] = tested on: NCl-H460; assay: NCI60 panel growth inhibition; format: cell-based; details: Homo sapiens; NCl-H460 cell line
Experimental: as §1

[32] = tested on: COLO 205; assay: NCI60 panel growth inhibition; format: cell-based; details: Homo sapiens; COLO 205 cell line
Experimental: as §1

[33] = tested on: MDA-MB-231/ATCC; assay: NCI60 panel growth inhibition; format: cell-based; details: Homo sapiens; MDA-MB-231/ATCC cell line
Experimental: as §1

[34] = tested on: MCF7; assay: NCI60 panel growth inhibition; format: cell-based; details: Homo sapiens; MCF7 cell line
Experimental: as §1

[35] = tested on: BT-549; assay: NCI60 panel growth inhibition; format: cell-based; details: Homo sapiens; BT-549 cell line
Experimental: as §1

[36] = tested on: LOX IMVI; assay: NCI60 panel growth inhibition; format: cell-based; details: Homo sapiens; LOX IMVI cell line
Experimental: as §1

[37] = tested on: MOLT-4; assay: NCI60 panel growth inhibition; format: cell-based; details: Homo sapiens; MOLT-4 cell line
Experimental: as §1

[38] = tested on: HCC-2998; assay: NCI60 panel growth inhibition; format: cell-based; details: Homo sapiens; HCC-2998 cell line
Experimental: as §1

[39] = tested on: RPMI-8226; assay: NCI60 panel growth inhibition; format: cell-based; details: Homo sapiens; RPMI-8226 cell line
Experimental: as §1

[40] = tested on: NCl-H23; assay: NCI60 panel growth inhibition; format: cell-based; details: Homo sapiens; NCl-H23 cell line
Experimental: as §1

[41] = tested on: CAKI-1; assay: NCI60 panel growth inhibition; format: cell-based; details: Homo sapiens; CAKI-1 cell line
Experimental: as §1

[42] = tested on: NCl-H522; assay: NCI60 panel growth inhibition; format: cell-based; details: Homo sapiens; NCl-H522 cell line
Experimental: as §1

[43] = tested on: CCRF-CEM; assay: NCI60 panel growth inhibition; format: cell-based; details: Homo sapiens; CCRF-CEM cell line
Experimental: as §1

[44] = tested on: MDA-MB-468; assay: NCI60 panel growth inhibition; format: cell-based; details: Homo sapiens; MDA-MB-468 cell line
Experimental: as §1

[45] = tested on: SN12C; assay: NCI60 panel growth inhibition; format: cell-based; details: Homo sapiens; SN12C cell line
Experimental: as §1

[46] = tested on: TK-10; assay: NCI60 panel growth inhibition; format: cell-based; details: Homo sapiens; TK-10 cell line
Experimental: as §1

[47] = tested on: UACC-257; assay: NCI60 panel growth inhibition; format: cell-based; details: Homo sapiens; UACC-257 cell line
Experimental: as §1

[48] = tested on: HS 578T; assay: NCI60 panel growth inhibition; format: cell-based; details: Homo sapiens; HS 578T cell line
Experimental: as §1

[49] = tested on: K-562; assay: NCI60 panel growth inhibition; format: cell-based; details: Homo sapiens, K562; K-562 cell line
Experimental: as §1

[50] = tested on: SK-OV-3; assay: NCI60 panel growth inhibition; format: cell-based; details: Homo sapiens; SK-OV-3 cell line
Experimental: as §1

[51] = tested on: SNB-75; assay: NCI60 panel growth inhibition; format: cell-based; details: Homo sapiens; SNB-75 cell line
Experimental: as §1

[52] = tested on: M14; assay: NCI60 panel growth inhibition; format: cell-based; details: Homo sapiens; M14 cell line
Experimental: as §1

[53] = tested on: OVCAR-5; assay: NCI60 panel growth inhibition; format: cell-based; details: Homo sapiens; OVCAR-5 cell line
Experimental: as §1

[54] = tested on: NCl-H322M; assay: NCI60 panel growth inhibition; format: cell-based; details: Homo sapiens; NCl-H322M cell line
Experimental: as §1

[55] = tested on: U251; assay: NCI60 panel growth inhibition; format: cell-based; details: Homo sapiens, U-251; U251 cell line
Experimental: as §1

[56] = tested on: 786-0; assay: NCI60 panel growth inhibition; format: cell-based; details: Homo sapiens; 786-0 cell line
Experimental: as §1

[57] = tested on: SK-MEL-5; assay: NCI60 panel growth inhibition; format: cell-based; details: Homo sapiens; SK-MEL-5 cell line
Experimental: as §1

[58] = tested on: SK-MEL-28; assay: NCI60 panel growth inhibition; format: cell-based; details: Homo sapiens; SK-MEL-28 cell line
Experimental: as §1

[59] = tested on: RXF 393; assay: NCI60 panel growth inhibition; format: cell-based; details: Homo sapiens; RXF 393 cell line
Experimental: as §1

[60] = tested on: PC-3; assay: NCI60 panel growth inhibition; format: cell-based; details: Homo sapiens; PC-3 cell line
Experimental: as §1

[61] = tested on: SK-MEL-2; assay: NCI60 panel growth inhibition; format: cell-based; details: Homo sapiens; SK-MEL-2 cell line
Experimental: as §1

## CN1CCN(c2ccc3nc(-c4c(N)c5c(F)cccc5[nH]c4=O)[nH]c3c2)CC1 [dovitinib, 4-amino-5-fluoro-3-[6-(4-methylpiperazin-1-yl)-1H-benzimidazol-2-yl]-1H-quinolin-2-one]
[1]
  GI50: 1070 nM
[2]; all five cohorts from Examples 2-6, patients at DRP cutoff of 50
  overall response rate (ORR=CR+PR): 26%
[2]; all five cohorts from Examples 2-6, patients at DRP cutoff of 80
  overall response rate (ORR=CR+PR): 35%
[2]; all five cohorts from Examples 2-6, without the DRP (breast cohort received dovitinib plus fulvestrant)
  average overall response rate (ORR=CR+PR): 16%
[3]
  GI50: 2190 nM
[4]
  GI50: 135 nM
[5]
  GI50: 7.59 µM
[6]
  GI50: 2690 nM
[7]
  GI50: 447 nM
[8]
  GI50: 427 nM
[9]
  GI50: 1410 nM
[10]
  GI50: 10 µM
[11]
  GI50: 1450 nM
[12]
  GI50: 2630 nM
[13]
  GI50: 490 nM
[14]
  GI50: 417 nM
[15]
  GI50: 3.63 µM
[16]
  GI50: 6.76 µM
[17]
  GI50: 427 nM
[18]
  GI50: 355 nM
[19]
  GI50: 6.03 µM
[20]
  GI50: 1070 nM
[21]
  GI50: 251 nM
[22]
  GI50: 550 nM
[23]
  GI50: 41.7 nM
[24]
  GI50: 1450 nM
[25]
  GI50: 219 nM
[26]
  GI50: 355 nM
[27]
  GI50: 1150 nM
[28]
  GI50: 562 nM
[29]
  GI50: 331 nM
[30]
  GI50: 575 nM
[31]
  GI50: 468 nM
[32]
  GI50: 2240 nM
[33]
  GI50: 2340 nM
[34]
  GI50: 1170 nM
[35]
  GI50: 1050 nM
[36]
  GI50: 871 nM
[37]
  GI50: 331 nM
[38]
  GI50: 1320 nM
[39]
  GI50: 1480 nM
[40]
  GI50: 2450 nM
[41]
  GI50: 468 nM
[42]
  GI50: 3.16 µM
[43]
  GI50: 589 nM
[44]
  GI50: 2570 nM
[45]
  GI50: 676 nM
[46]
  GI50: 7.76 µM
[47]
  GI50: 3.39 µM
[48]
  GI50: 977 nM
[49]
  GI50: 550 nM
[50]
  GI50: 513 nM
[51]
  GI50: 977 nM
[52]
  GI50: 389 nM
[53]
  GI50: 1780 nM
[54]
  GI50: 759 nM
[55]
  GI50: 550 nM
[56]
  GI50: 724 nM
[57]
  GI50: 1780 nM
[58]
  GI50: 1480 nM
[59]
  GI50: 219 nM
[60]
  GI50: 1120 nM
[61]
  GI50: 891 nM
